Test results from patent US9605005B2, “Alkynyl alcohols and methods of use” (Genentech, Inc., priority 2013, dated 2017).
Like-named read-outs stand apart in the source and are kept apart here.

What was measured:
[1] = test system: p52 (NF-kB2) nuclear translocation, HeLa cells; test: p52 (NF-kB2) nuclear translocation assay in HeLa cells (non-classical NF-kB signaling, anti-lymphotoxin beta receptor antibody stimulated); format: cell-based; details: Homo sapiens, 100 ng/mL anti-lymphotoxin beta receptor antibody for 5 hours, read-out: p52 HeLa Transloc Assay (IC50)
Description: (§1) Several assays were developed to profile the cellular activities of NIK inhibitors.
(§2) (2) A second set of cell assay are used to define the selectivity of NIK inhibitors toward inhibition of classical vs. non-classical NF-kB signaling and rely on quantification of the nuclear translocation of p52 (NF-kB2) and REL-A (p65) using high content cellular imaging. For the p52 (non-classical NF-kB signaling) nuclear translocation assay, HeLa cells are treated with different concentrations of compounds (0.2% DMSO final) in medium containing 10% fetal bovine serum and then stimulated with 100 ng/mL of an anti-lymphotoxin beta receptor antibody (R&D Systems) for 5 hours. In the REL-A nuclear translocation assay, HeLa cells are incubated with compounds (0.2% DMSO final) for 4.5 hours in medium containing 10% fetal bovine serum before stimulating them with 10 ng/mL tumor necrosis factor (TNF)-α (R&D Systems) for 30 minutes. Cells are fixed with 4% paraformaldehyde, permeabilized by adding 0.1% Triton X-100 in phosphate buffered saline, and then are incubated with either 2 ug/mL anti-p52 antibody (Millipore) or 400 ng/mL anti-REL-A (p65) antibody (Santa Cruz Biotechnology). Finally, the cells are incubated with an Alexa488-labeled secondary antibody (Invitrogen) and DRAQ5 DNA stain (Biostatus). Imaging is carried out using an Opera reader (Perkin Elmer) and data are analyzed with the aid of Acapella software (Perkin Elmer). The p52 or REL-Atranslocation into the nucleus is quantified by the ratio of the nuclear to cytoplasmic signal intensity. […] The compounds in listed in Table 1 have the corresponding inhibitory value (IC50 in micromolar) for NIK p52 Translocation Assay as set forth in Table 2.
(§3) The compounds in listed in Table 1 have the corresponding inhibitory values (IC50 in micromolar) for the Translocation Assays as set forth in Table 2.

[2] = target: nuclear factor-kappa B (NF-kB)-inducing kinase (NIK) (Homo sapiens (Human), UniProt Q99558); test: NIK enzyme inhibition assay (Transcreener ADP, NIK ADP-FP); format: biochemical; details: purified NIK 0.5 nM, 10 μM ATP, fluorescence polarization; read-out: NIK ADP-FP (Ki μM)
[3] = test system: REL-A (p65) nuclear translocation, HeLa cells; test: REL-A (p65) nuclear translocation assay in HeLa cells (classical NF-kB signaling, TNF-α stimulated); format: cell-based; details: Homo sapiens, 0.5 h
Description: as §1, §2, §3

[4] = HeLa cells, 10 ng/mL TNF-α for 30 minutes, read-out: REL-A HeLa Transloc Assay (IC50)

Sequence of nuclear factor-kappa B (NF-kB)-inducing kinase (NIK) (Q99558 whole entry): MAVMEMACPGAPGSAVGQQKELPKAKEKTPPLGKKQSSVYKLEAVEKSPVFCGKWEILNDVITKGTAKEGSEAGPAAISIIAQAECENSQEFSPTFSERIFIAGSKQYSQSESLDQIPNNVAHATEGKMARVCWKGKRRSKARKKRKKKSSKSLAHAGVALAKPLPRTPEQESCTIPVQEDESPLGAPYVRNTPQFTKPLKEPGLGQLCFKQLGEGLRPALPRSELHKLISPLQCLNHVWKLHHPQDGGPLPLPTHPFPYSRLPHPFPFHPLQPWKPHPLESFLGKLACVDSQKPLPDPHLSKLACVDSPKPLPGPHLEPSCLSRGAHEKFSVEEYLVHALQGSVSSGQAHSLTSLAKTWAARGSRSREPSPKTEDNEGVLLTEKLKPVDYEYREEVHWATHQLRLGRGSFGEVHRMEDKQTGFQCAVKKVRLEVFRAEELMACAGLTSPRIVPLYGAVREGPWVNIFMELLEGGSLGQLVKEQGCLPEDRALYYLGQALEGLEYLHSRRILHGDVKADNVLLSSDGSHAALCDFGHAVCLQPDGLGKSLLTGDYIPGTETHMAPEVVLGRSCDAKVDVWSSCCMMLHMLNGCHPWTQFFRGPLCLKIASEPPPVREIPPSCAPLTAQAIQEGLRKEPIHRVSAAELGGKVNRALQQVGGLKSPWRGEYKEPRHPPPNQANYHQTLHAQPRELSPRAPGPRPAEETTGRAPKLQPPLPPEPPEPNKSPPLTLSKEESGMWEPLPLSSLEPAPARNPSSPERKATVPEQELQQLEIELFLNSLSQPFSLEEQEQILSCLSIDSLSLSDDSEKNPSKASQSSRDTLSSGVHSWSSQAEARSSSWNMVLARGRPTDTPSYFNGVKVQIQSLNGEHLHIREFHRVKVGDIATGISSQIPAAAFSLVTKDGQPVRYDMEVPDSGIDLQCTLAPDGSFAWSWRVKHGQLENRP

| Structure (SMILES) | IC50 [1] [nM] | Ki [2] [nM] | IC50 [3, 4] [µM] | IC50 ([3]; HeLa, read-out: REL-A HeLa Transloc Assay (IC50) [μM]) [µM] |
| --- | --- | --- | --- | --- |
| CN1CC[C@@](O)(C#Cc2cccc(-c3csc(C(N)=O)n3)c2)C1=O [Compound 89, 4-[3-[2-[(3R)-3-hydroxy-1-methyl-2-oxo-pyrrolidin-3-yl]ethynyl]phenyl]thiazole-2-carboxamide] | 226 | 1.65 | > 20 |  |
| CN1CC[C@@](O)(C#Cc2cccc(-n3nc(C(N)=O)c4c3CCC4)c2)C1=O [Compound 119, 1-[3-[2-[(3R)-3-hydroxy-1-methyl-2-oxo-pyrrolidin-3-yl]ethynyl]phenyl]-5,6-dihydro-4H-cyclopenta[c]pyrazole-3-carboxamide] | 45.8 | 0.43 | 20 |  |
| CN1CC[C@@](O)(C#Cc2cc(-n3nc(C(N)=O)c4c3CCCC4)ccc2C#N)C1=O [Compound 167, 1-[4-cyano-3-[2-[(3R)-3-hy-droxy-1-methyl-2-oxo-pyrroli-din-3-yl]ethynyl]phenyl]-4,5,6,7-tetrahydroindazole-3-carboxamide] | 397 | 1.93 | 20 |  |
| CN1CCC[C@@](O)(C#Cc2cccc(-n3nc(C(N)=O)c4ccc(F)cc43)c2)C1=O [Compound 27, 6-fluoro-1-[3-[2-[(3R)-3-hy-droxy-1-methyl-2-oxo-3-pipe-ridyl]ethynyl]phenyl]inda-zole-3-carboxamide] | 322 | 3.75 | 20 |  |
| CN1CC[C@@](O)(C#Cc2cccc(-c3nc(C(N)=O)c4cccnn34)c2)C1=O [Compound 86, 7-[3-[2-[(3R)-3-hydroxy-1-methyl-2-oxo-pyrrolidin-3-yl]ethynyl]phenyl]imidazo[1,5-b]pyridazine-5-carboxamide] | 356 | 0.73 | 20 |  |
| CN1CC[C@@](O)(C#Cc2cccc(-n3nc(C(N)=O)c4scnc43)c2)C1=O [Compound 144, 1-[3-[2-[(3R)-3-hydroxy-1-methyl-2-oxo-pyrrolidin-3-yl]ethynyl]phenyl]pyrazolo [3,4-d]thiazole-3-carboxamide] | 33.1 | 0.31 | 20 |  |
| C[C@@](O)(C#Cc1cccc(-n2nc(C(N)=O)c3ccccc32)c1)c1c[nH]nn1 [Compound 117, 1-[3-[(3R)-3-hydroxy-3-(1H-triazol-4-yl)but-1-ynyl]phe-nyl]indazole-3-carboxamide] | 74.3 | 0.32 | 20 |  |
| CN1CC[C@@](O)(C#Cc2cccc(-c3nc(C(N)=O)n4ccc(C(F)(F)F)cc34)c2)C1=O [Compound 91, 1-[3-[2-[(3R)-3-hydroxy-1-methyl-2-oxo-pyrrolidin-3-yl]ethynyl]phenyl]-7-(trifluoro-methyl)imidazo[1,5-a]pyri-dine-3-carboxamide] | 18.9 | 0.15 | 20 |  |
| CN1CC[C@@](O)(C#Cc2cccc(-n3nc(C(N)=O)c4ccncc43)c2)C1=O [Compound 148, 1-[3-[2-[(3R)-3-hydroxy-1-methyl-2-oxo-pyrrolidin-3-yl]ethynyl]phenyl]pyrazolo [3,4-c]pyridine-3-carboxamide] | 110 | 0.38 | 20 |  |
| CN1CC[C@@](O)(C#Cc2cccc(-n3nc(C(N)=O)c4cnc(C5CC5)nc43)c2)C1=O [Compound 158, 6-cyclopropyl-1-[3-[2-[(3R)-3-hydroxy-1-methyl-2-oxo-pyrrolidin-3-yl]ethynyl]phenyl]pyrazolo[3,4-d]pyri-midine-3-carboxamide] | 46.2 | 0.23 | 2 |  |
| CN1CC[C@@](O)(C#Cc2cccc(-n3nc(C(N)=O)c4c3CCC[C@@H]4O)c2)C1=O [Compound 3, (4S)-4-hydroxy-1-[3-[2-[(3R)-3-hydroxy-1-methyl-2-oxo-pyrrolidine-3-yl]ethynyl]phenyl]-4,5,6,7-tetrahydroinda-zole-3-carboxamide] | 544 | 1.13 | 20 |  |
| CN1CC[C@@](O)(C#Cc2ccnc(-n3nc(C(N)=O)c4c3CCC(C)(C)C4)c2)C1=O [Compound 64, 1-[4-[2-[(3R)-3-hydroxy-1-methyl-2-oxo-pyrrolidin-3-yl]ethynyl]-2-pyridyl]-5,5-dimethyl-6,7-dihydro-4H-inda-zole-3-carboxamide] | 2310 | 3.06 | 3.03 |  |
| CN1CC[C@@](O)(C#Cc2cccc(-n3nc(C(N)=O)c4cc(OCCN5CCC5)ccc43)c2)C1=O [Compound 161, 5-[2-(azetidin-1-yl)ethoxy]-1-[3-[2-[(3R)-3-hydroxy-1-methyl-2-oxo-pyrrolidin-3-yl]ethynyl]phenyl]indazole-3-carboxamide] | 770 | 2.52 | 2 |  |
| CN1CC[C@@](O)(C#Cc2cccc(-n3nc(C(N)=O)c4cnccc43)c2)C1=O [Compound 132, 1-[3-[2-[(3R)-3-hydroxy-1-methyl-2-oxo-pyrrolidin-3-yl]ethynyl]phenyl]pyrazolo [4,3-c]pyridine-3-carboxamide] | 88.7 | 0.378 | 20 |  |
| CN1CC[C@@](O)(C#Cc2cccc(-n3nc(C(N)=O)c4cnc(N5CCCC5)cc43)c2)C1=O [Compound 137, 1-[3-[2-[(3R)-3-hydroxy-1-methyl-2-oxo-pyrrolidin-3-yl]ethynyl]phenyl]-6-pyrroli-din-1-yl-pyrazolo[4,3-c]pyri-dine-3-carboxamide] | 33.8 | 0.25 | 20 |  |
| CN1CC[C@@](O)(C#Cc2cccc(-c3ccn4c(C(N)=O)nc(-c5cccc(C#C[C@]6(O)CCN(C)C6=O)c5)c4c3)c2)C1=O [Compound 95, 1,7-bis[3-[2-[(3R)-3-hydroxy-1-methyl-2-oxo-pyrrolidin-3-yl]ethynyl]phenyl]imi-dazo[1,5-a]pyridine-3-carbox-amide] | 86.4 | 0.05 |  | 2 |
| Cc1nnc([C@](C)(O)C#Cc2cccc(-n3nc(C(N)=O)c4ccccc43)c2)o1 [Compound 26, 1-[3-[(3R)-3-hydroxy-3-(5-methyl-1,3,4-oxadiazol-2-yl)but-1-ynyl]phenyl]indazole-3-carboxamide] | 1130 | 2.52 | 20 |  |
| C[C@@H]1CCc2c1c(C(N)=O)nn2-c1cccc(C#C[C@]2(O)CCN(C)C2=O)c1 [Compound 109, (4R)-1-[3-[2-[(3R)-3-hydroxy-1-methyl-2-oxo-pyrrolidin-3-yl]ethynyl]phenyl]-4-methyl-5,6-dihydro-4H-cyclo-penta[c]pyrazole-3-carbox-amide] | 209 | 9.58 | 20 |  |
| Cc1cc2c(cn1)c(C(N)=O)nn2-c1cccc(C#C[C@]2(O)CCN(C)C2=O)c1 [Compound 131, 1-[3-[2-[(3R)-3-hydroxy-1-methyl-2-oxo-pyrrolidin-3-yl]ethynyl]phenyl]-6-methyl-pyrazolo[4,3-c]pyridine-3-carboxamide] | 87 | 0.31 | 20 |  |
| CN1CC[C@@](O)(C#Cc2cccc(-n3nc(C(N)=O)c4cnc(C(F)(F)F)nc43)c2)C1=O [Compound 159, 1-[3-[2-[(3R)-3-hydroxy-1-methyl-2-oxo-pyrrolidin-3-yl]ethynyl]phenyl]-6-(trifluoro-methyl)pyrazolo[3,4-d] pyrimidine-3-carboxamide] | 2000 | 7.13 | 2 |  |
